Experimental findings from patent publication US4253998A, “Peptides related to somatostatin” (American Home Products Corporation, priority 1979, dated 1981) are described below.

Counter-ions that a name gives are not always drawn. Bridge positions count the residues as written; N and C are the ends. Square brackets hold non-standard residues; d marks the D form. Peptide text beside a SMILES is read from it.

Common to all, as to type: in vivo, rat
One experiment concerns glucagon. As to the kind of experiment: Inhibition of glucagon secretion in arginine-treated, pentobarbital-anesthetized rats (radioimmunoassay). How it is done:
(§1) Male albino rats are divided into two groups (e.g. nine rats per group). Each animal is administered sodium pentobarbital (Nembutal), I. P., at a dose of 50 mg/kg. Fifteen minutes later, one group received a S. C. injection of the test compound in saline (typically 5 to 200 μg/kg.), and the other group (control) receives saline alone. Ten minutes later, each animal is given a 0.5 ml. injection of arginine (300 mg/ml., pH 7.2) into the heart. Five minutes after receipt of the arginine, the animals are decapitated and blood is collected into Trasylol-EDTA. An appropriate aliquot of each sample is assayed for GH, glucagon, and insulin by radioimmunossay. GH is determined by the method of Sinha et al., Endocrinol., 91, 784 (1972); glucagon is determined by the method of Caloona and Unger, "Methods of Hormone Radioimmunoassay," Jaffe et al., Ed., Academic Press, New York, 1974, pages 317-330; and insulin is determined by the method of Hales and Randle, Biochem. J., 88, 137 (1963). The blood concentrations of growth hormone, glucagon, and insulin for the animals given the test compound are compared by standard statistical methods to the blood concentrations for the control group.

For experiment [1], the system named is growth hormone (GH). Description: Inhibition of growth hormone secretion in arginine-treated, pentobarbital-anesthetized rats (radioimmunoassay). As to the method: as §1
For experiment [2], the system named is growth hormone (GH). Description: Prolonged inhibition of growth hormone in rats (plasma GH 2 to 6 hours after S.C. injection). The note with it: for Plasma GH: 1000 μg/kg S.C. As to the method:
Albino male rats are arranged in two groups (nine rats per group). One group received a subcutaneous (S. C.) injection of the test compound (typically 1 mg/kg.) in saline, and the other group received a S. C. injection of saline alone (control). […] P. injection of sodium pentobarbital, 50 mg/kg. At the end of the experiment, blood samples are taken from each animal by cardiac puncture, and each sample is mixed with Trasylol-EDTA. An aliquot of each sample is assayed for GH by radioimmunoassay. The blood growth hormone concentrations for the animals receiving the test compound are compared by standard statistical methods to the growth hormone concentrations for the control animals. Compounds considered long-acting product a significant decrease in blood growth hormone concentration at a dose of 1 mg/kg. at least two hours after injection.

In the next experiment the test system is insulin. Description: Inhibition of insulin secretion in arginine-treated, pentobarbital-anesthetized rats (radioimmunoassay). As to the method:
as §1

Consider `C[C@@H](O)[C@@H]1NC(=O)[C@H](CCCCN)NC(=O)[C@@H](Cc2c[nH]c3ccccc23)NC(=O)[C@H](Cc2ccccc2)NC(=O)[C@H](Cc2ccccc2)NC(=O)[C@H](Cc2c[nH]cn2)NC(=O)[C@H](CCCNC(=N)N)NC(=O)[C@@H](N)CSSC[C@@H](C(=O)O)NC(=O)[C@@H](Cc2ccc(O)cc2)NC(=O)[C@H]([C@@H](C)O)NC(=O)[C@H](Cc2ccccc2)NC1=O` [Example 2, L-Cysteinyl-L-Arginyl-L-Histidyl-L-Phenylalanyl-L-Phenylalanyl-D-Tryptophyl-L-Lysyl-L-Threonyl-L-Phenylalanyl-L-Threonyl-D-Tyrosyl-L-Cysteine Cyclic (1→12) Disulfide] (H-CRHFF[dW]KTFT[dY]C-OH; disulfide 1-12), for which the Glucagon with glucagon (Exp. A, 100 μg/kg S.C., control 61 ± 8, p < 0.01) is 22 ± 7 pg/mL; in the experiment with glucagon (Exp. B, 400 μg/kg S.C., control 41 ± 5, p < 0.01), 9 ± 1 pg/mL. In addition, the GH came to 181 ± 47 ng/mL in the experiment on growth hormone (GH) [1] (Exp. A, 100 μg/kg S.C., blood 15 min after dose, 5 min after arginine, control 508 ± 13, p < 0.05) and 67 ± 13 ng/mL in the experiment with growth hormone (GH) [1] (Exp. B, 400 μg/kg S.C., control 234 ± 36, p < 0.01). In addition, the “Plasma GH” value was determined as 89 ± 5 ng/mL in the experiment on growth hormone (GH) [2] (Exp. C, 2 hours, control 213 ± 14, p < 0.001); 101 ± 13 ng/mL in the experiment on growth hormone (GH) [2] (Exp. C, 4 hours, control 182 ± 12, p < 0.001); 230 ± 31 ng/mL in the experiment on growth hormone (GH) [2] (Exp. D, 5 hours, control 337 ± 36, p < 0.05); 172 ± 34 ng/mL with growth hormone (GH) [2] (Exp. D, 6 hours, control 234 ± 24, not significant). Further, the “Prolonged inhibition of growth hormone / period of action (in words)” value with growth hormone (GH) [2] (rat, in vivo) was “shows prolonged inhibition of growth hormone”. Further, the Insulin came to 154 ± 39 μU/ml in the experiment with insulin (Exp. A, 100 μg/kg S.C., control 298 ± 33, p < 0.05) and 70 ± 23 μU/ml in the experiment with insulin (Exp. B, 400 μg/kg S.C., control 187 ± 21, p < 0.01).
`C[C@@H](O)[C@@H]1NC(=O)[C@H](CCCCN)NC(=O)[C@@H](Cc2c[nH]c3ccccc23)NC(=O)[C@H](Cc2ccccc2)NC(=O)[C@H](Cc2ccccc2)NC(=O)[C@H](CCC(=O)O)NC(=O)[C@H](CCCNC(=N)N)NC(=O)[C@@H](N)CSSC[C@@H](C(=O)O)NC(=O)[C@@H](Cc2ccc(O)cc2)NC(=O)[C@H]([C@@H](C)O)NC(=O)[C@H](Cc2ccccc2)NC1=O` [Example 4, L-Cysteinyl-L-Arginyl-L-α-Glutamyl-L-Phenylalanyl-L-Phenylalanyl-D-Tryptophyl-L-Lysyl-L-Threonyl-L-Phenylalanyl-L-Threonyl-D-Tyrosyl-L-Cysteine Cyclic (1→12) Disulfide Triacetate Salt] (H-CREFF[dW]KTFT[dY]C-OH; disulfide 1-12) returned a Glucagon in the experiment on glucagon (Exp. E, 200 μg/kg S.C., control 62 ± 10, not significant) of 41 ± 14 pg/mL. This molecule gave a GH in the experiment with growth hormone (GH) [1] (Exp. E, 200 μg/kg S.C., control 354 ± 57, p < 0.01) of 81 ± 6 ng/mL. For the same molecule, the Insulin in the experiment on insulin (Exp. E, 200 μg/kg S.C., control 336 ± 31, p < 0.01) amounted to 128 ± 33 μU/ml.
Molecule `C[C@@H](O)[C@@H]1NC(=O)[C@H](CCCCN)NC(=O)[C@@H](Cc2c[nH]c3ccccc23)NC(=O)[C@H](Cc2ccccc2)NC(=O)[C@H](Cc2ccccc2)NC(=O)[C@H](Cc2c[nH]cn2)NC(=O)[C@H](Cc2c[nH]cn2)NC(=O)[C@@H](N)CSSC[C@@H](C(=O)O)NC(=O)[C@@H](CO)NC(=O)[C@H]([C@@H](C)O)NC(=O)[C@H](Cc2ccccc2)NC1=O` [Example 6, L-Cysteinyl-L-Histidyl-L-Histidyl-L-Phenylalanyl-L-Phenylalanyl-D-Tryptophyl-L-Lysyl-L-Threonyl-L-Phenylalanyl-L-Threonyl-D-Seryl-L-Cysteine Cyclic (1→12) Disulfide Triacetate Salt] (H-CHHFF[dW]KTFT[dS]C-OH; disulfide 1-12) yielded a Glucagon in the experiment on glucagon (Exp. F, 100 μg/kg S.C., control 162 ± 29, p < 0.01) of 55 ± 12 pg/mL. This molecule yielded a GH with growth hormone (GH) [1] (Exp. F, 100 μg/kg S.C., control 363 ± 74, p < 0.01) of 83 ± 16 ng/mL. Also, in the experiment with insulin (Exp. F, 100 μg/kg S.C., control 75 ± 8, not significant), the Insulin is 60 ± 10 μU/ml.
